Assay results reported in patent publication US20150258101A1 (Proximagen Limited, priority 2014, published 2015).

Columns and labels:
[1] = target: T1, purified recombinantly expressed human SSAO (Homo sapiens, UniProt Q16853); experiment: SSAO enzyme inhibition assay (benzylamine substrate; hydrogen peroxide/HRP-coupled or 14C aldehyde detection); type: biochemical; settings: SSAO inhibitory activity, RT
T1 construct: made in house
T1 sequence (Q16853 1-763): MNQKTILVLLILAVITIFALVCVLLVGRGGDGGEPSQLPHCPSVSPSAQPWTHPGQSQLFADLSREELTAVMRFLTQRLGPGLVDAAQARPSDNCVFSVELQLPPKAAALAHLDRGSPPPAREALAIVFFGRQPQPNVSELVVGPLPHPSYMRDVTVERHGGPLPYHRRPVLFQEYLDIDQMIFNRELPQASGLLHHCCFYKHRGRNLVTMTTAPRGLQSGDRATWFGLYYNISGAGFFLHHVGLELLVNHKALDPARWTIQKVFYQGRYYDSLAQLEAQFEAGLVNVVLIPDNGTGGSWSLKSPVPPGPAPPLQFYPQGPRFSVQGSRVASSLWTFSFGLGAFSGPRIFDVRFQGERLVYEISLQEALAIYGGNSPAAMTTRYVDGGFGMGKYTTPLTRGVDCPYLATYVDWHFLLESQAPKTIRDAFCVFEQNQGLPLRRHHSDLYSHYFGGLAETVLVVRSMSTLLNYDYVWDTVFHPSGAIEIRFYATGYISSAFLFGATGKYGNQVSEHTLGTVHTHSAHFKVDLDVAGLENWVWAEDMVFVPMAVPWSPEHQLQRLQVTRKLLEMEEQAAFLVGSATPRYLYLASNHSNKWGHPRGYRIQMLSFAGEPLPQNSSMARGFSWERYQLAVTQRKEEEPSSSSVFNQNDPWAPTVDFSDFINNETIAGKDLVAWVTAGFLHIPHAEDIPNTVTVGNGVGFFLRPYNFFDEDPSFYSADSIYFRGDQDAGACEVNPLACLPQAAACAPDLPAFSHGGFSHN
How it was run: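 IC50 values came from a four-parameter logistic fit of % signal decrease versus DMSO control, with no-enzyme background subtracted. Two read-outs were used with human recombinant SSAO after ~15 min compound pre-incubation at RT. In the H2O2/HRP-Amplex read-out, enzyme was 1 ug/ml and benzylamine 100 uM (pH 7.4 phosphate), with resorufin fluorescence followed 1-2 h. In the 14C-benzaldehyde read-out (PBS), enzyme was 10 ug/ml and benzylamine 40 uM, run 1 h then acid-stopped.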

[2] = target: T2, human ether a go-go related gene (hERG) K+ channel (Homo sapiens, UniProt Q12809); experiment: hERG assay, IonWorks patch clamp electrophysiology; type: cell-based; settings: Chinese Hamster Lung cell line stably expressing hERG; max assay concentration 11 uM
T2 construct: a Chinese Hamster Lung cell line stably expressing the full length hERG channel; expressed in transfected cells; host or cells: Chinese Hamster Lung cell line
Procedure: Compounds of the invention were tested for inhibition of the human ether a go-go related gene (hERG) K^+ channel using IonWorks patch clamp electrophysiology. 8 Point concentration-response curves were generated on two occasions using 3-fold serial dilutions from the maximum assay concentration (11 uM). Electrophysiological recordings were made from a Chinese Hamster Lung cell line stably expressing the full length hERG channel. Single cell ion currents were measured in the perforated patch clamp configuration (100 ug/mL amphoterocin) at room temperature using an IonWorks Quattro instrument. The internal solution contained 140 mM KCl, 1 mM MgCl2, 1 mM EGTA and 20 mM HEPES and was buffered to pH 7.3. The external solution contained 138 mM NaCl, 2.7 mM KCl, 0.9 mM CaCl2, 0.5 mM MgCl2, 8 mM Na2HPO4 and 1.5 mM KH2PO4, and was buffered to pH 7.3. […] This sequence was repeated 5 times at a frequency of 0.25 Hz. Currents were measured from the tail step at the 5th pulse, and referenced to the holding current. Compounds were incubated for 6-7 min prior to a second measurement of the hERG signal using an identical pulse train. […] A control compound (quinidine) was used (see Table 20 below).

T2 sequence (Q12809 whole entry): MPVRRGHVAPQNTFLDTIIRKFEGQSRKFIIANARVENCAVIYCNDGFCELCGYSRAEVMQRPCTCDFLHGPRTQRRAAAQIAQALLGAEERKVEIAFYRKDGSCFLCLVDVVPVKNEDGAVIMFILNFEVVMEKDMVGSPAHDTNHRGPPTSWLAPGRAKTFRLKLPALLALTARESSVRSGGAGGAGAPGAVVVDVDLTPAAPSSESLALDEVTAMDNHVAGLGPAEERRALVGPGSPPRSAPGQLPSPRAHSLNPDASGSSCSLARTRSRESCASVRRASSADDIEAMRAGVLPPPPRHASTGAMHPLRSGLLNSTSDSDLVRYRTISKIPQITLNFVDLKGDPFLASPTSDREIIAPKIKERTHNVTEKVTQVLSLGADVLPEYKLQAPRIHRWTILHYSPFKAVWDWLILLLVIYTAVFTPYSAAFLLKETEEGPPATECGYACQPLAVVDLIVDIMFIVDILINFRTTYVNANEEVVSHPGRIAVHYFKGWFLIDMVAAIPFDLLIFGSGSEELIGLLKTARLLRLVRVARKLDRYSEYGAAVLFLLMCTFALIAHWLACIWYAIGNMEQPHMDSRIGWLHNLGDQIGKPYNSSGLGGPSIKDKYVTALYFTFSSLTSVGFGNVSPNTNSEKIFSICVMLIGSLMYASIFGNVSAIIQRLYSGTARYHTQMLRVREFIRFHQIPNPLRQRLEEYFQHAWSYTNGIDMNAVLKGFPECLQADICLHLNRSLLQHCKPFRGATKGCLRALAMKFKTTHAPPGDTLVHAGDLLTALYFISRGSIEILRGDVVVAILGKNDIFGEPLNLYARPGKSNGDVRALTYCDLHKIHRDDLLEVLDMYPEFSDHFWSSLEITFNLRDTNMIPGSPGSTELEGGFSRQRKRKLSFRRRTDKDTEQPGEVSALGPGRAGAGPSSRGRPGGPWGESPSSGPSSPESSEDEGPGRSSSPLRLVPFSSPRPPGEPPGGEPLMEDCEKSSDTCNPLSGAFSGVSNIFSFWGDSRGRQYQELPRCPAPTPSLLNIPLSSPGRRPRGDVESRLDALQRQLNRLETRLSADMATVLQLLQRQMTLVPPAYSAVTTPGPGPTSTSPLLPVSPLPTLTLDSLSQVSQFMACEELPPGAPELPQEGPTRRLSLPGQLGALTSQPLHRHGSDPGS

IC50 [1] [µM] | SMILES | IC50 [2] [µM]
< 0.05 | CC(=O)NC1CCN(c2ccc(-c3nc4ccncc4n3-c3ccc(Cl)cc3)cn2)CC1 [Example 85, N-(1-{5-[3-(4-Chlorophenyl)-3H-imidazo[4,5-c]pyridin-2-yl]pyridin-2-yl}piperidin-4-yl)acetamide] | > 10
< 0.05 | CC(=O)N1CCN(c2ccc(-c3nc4ccncc4n3-c3ccc(F)cc3)cn2)CC1 [Example 86, 1-(4-{5-[3-(4-Fluorophenyl)-3H-imidazo[4,5-c]pyridin-2-yl]pyridin-2-yl}piperazin-1-yl)ethan-1-one] | > 10
< 0.05 | CS(=O)(=O)NC1CCN(c2ccc(-c3nc4ccncc4n3-c3ccc(Cl)cc3)cn2)CC1 [Example 88, N-(1-{5-[3-(4-Chlorophenyl)-3H-imidazo[4,5-c]pyridin-2-yl]pyridin-2-yl}piperidin-4-yl)methanesulfonamide] | 1 to 10
< 0.05 | CS(=O)(=O)N1CCN(c2ccc(-c3nc4ccncc4n3-c3ccc(F)cc3)cn2)CC1 [Example 89, 1-{5-[3-(4-Fluorophenyl)-3H-imidazo[4,5-c]pyridin-2-yl]pyridin-2-yl}-4-methanesulfonylpiperazine] | > 10
0.2 to 1.2 | NC(=O)NC1CCN(c2ccc(-c3nc4ccncc4n3-c3ccc(Cl)cc3)cn2)CC1 [Example 91, (1-{5-[3-(4-Chlorophenyl)-3H-imidazo[4,5-c]pyridin-2-yl]pyridin-2-yl}piperidin-4-yl)urea; bis(trifluoroacetic acid)] | > 10
< 0.05 | NC(=O)N1CCN(c2ccc(-c3nc4ccncc4n3-c3ccc(F)cc3)cn2)CC1 [Example 92, 4-{5-[3-(4-Fluorophenyl)-3H-imidazo[4,5-c]pyridin-2-yl]pyridin-2-yl}piperazine-1-carboxamide] | > 10
0.05 to 0.2 | c1ccc(-n2c(-c3cnc(N4CCOCC4)nc3)nc3ccncc32)cc1 [Example 95, 4-(5-{3-Phenyl-3H-imidazo[4,5-c]pyridin-2-yl}pyrimidin-2-yl)morpholine] | > 10
0.05 to 0.2 | Fc1ccc(-n2c(-c3cnc(N4CCOCC4)c(F)c3)nc3ccncc32)cc1 [Example 98, 4-{3-Fluoro-5-[3-(4-fluorophenyl)-3H-imidazo[4,5-c]pyridin-2-yl]pyridin-2-yl]morpholine] | > 10
0.2 to 1.2 | Nc1ccc(-c2nc3ccncc3n2-c2ccc(Cl)cc2)cn1 [Example 110, 5-[3-(4-Chlorophenyl)-3H-imidazo[4,5-c]pyridin-2-yl]pyridin-2-amine] | > 10
0.2 to 1.2 | COCCN(C)c1ncc(-c2nc3ccncc3n2-c2ccc(C)cc2)cn1 [Example 117, N-(2-Methoxyethyl)-N-methyl-5-[3-(4-methylphenyl)-3H-imidazo[4,5-c]pyridin-2-yl]pyrimidin-2-amine] | > 10
0.2 to 1.2 | Clc1ccc(-n2c(-c3ccncc3)cc3ccncc32)cc1 [Example 120, 4-[1-(4-Chlorophenyl)-1H-pyrrolo[2,3-c]pyridin-2-yl]pyridine] | 1 to 10
0.05 to 0.2 | Clc1ccc(-n2c(-c3cccnc3)cc3ccncc32)cc1 [Example 122, 3-[1-(4-Chlorophenyl)-1H-pyrrolo[2,3-c]pyridin-2-yl]pyridine] | 1 to 10
< 0.05 | Clc1ccc(-n2c(-c3cnc(N4CCOCC4)nc3)cc3ccncc32)cc1 [Example 127, 4-{5-[1-(4-Chlorophenyl)-1H-pyrrolo[2,3-c]pyridin-2-yl]pyrimidin-2-yl}morpholine] | 0.1 to 1
< 0.05 | O=C1CN(c2ncc(-c3cc4ccncc4n3-c3ccc(Cl)cc3)cn2)CCN1 [Example 128, 4-{5-[1-(4-Chlorophenyl)-1H-pyrrolo[2,3-c]pyridin-2-yl]pyrimidin-2-yl}piperazin-2-one] | > 10
< 0.05 | O=c1cc(-c2cc3ccncc3n2-c2ccc(Cl)cc2)ccn1C1CC1 [Example 138, 4-[1-(4-Chlorophenyl)-1H-pyrrolo[2,3-c]pyridin-2-yl]-1-cyclopropyl-1,2-dihydropyridin-2-one] | 1 to 10
< 0.05 | Clc1ccc(-n2c(-c3cnc(NC4CCOCC4)nc3)cc3ccncc32)cc1 [Example 139, 5-[1-(4-Chlorophenyl)-1H-pyrrolo[2,3-c]pyridin-2-yl]-N-(oxan-4-yl)pyrimidin-2-amine] | 0.1 to 1
< 0.05 | Clc1ccc(-n2c(-c3ccc(CN4CCOCC4)nc3)cc3ccncc32)cc1 [Example 140, 4-({5-[1-(4-Chlorophenyl)-1H-pyrrolo[2,3-c]pyridin-2-yl]pyridin-2-yl}methyl)morpholine] | 1 to 10
0.05 to 0.2 | O=c1cc(-c2cc3ccncc3n2-c2ccc(Cl)cc2)cc[nH]1 [Example 142, 4-[1-(4-Chlorophenyl)-1H-pyrrolo[2,3-c]pyridin-2-yl]-1,2-dihydropyridin-2-one] | 1 to 10
< 0.05 | Nc1cc(-c2cc3ccncc3n2-c2ccc(Cl)cc2)ccn1 [Example 147, 4-[1-(4-Chlorophenyl)-1H-pyrrolo[2,3-c]pyridin-2-yl]pyridin-2-amine] | 1 to 10
0.2 to 1.2 | Fc1cnccc1-c1cc2ccncc2n1-c1ccc(Cl)cc1 [Example 152, 4-[1-(4-Chlorophenyl)-1H-pyrrolo[2,3-c]pyridin-2-yl]-3-fluoropyridine] | 1 to 10
0.05 to 0.2 | Clc1ccc(-n2c(-c3ccncc3Cl)cc3ccncc32)cc1 [Example 153, 3-Chloro-4-[1-(4-chlorophenyl)-1H-pyrrolo[2,3-c]pyridin-2-yl]pyridine] | 1 to 10
